The supplement of paper PMC8671470

Legend:
Conditions in all cases: 72 h
HL-60 [1] = tested on: HL-60
How it was run: (§1)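 Fifteen myeloid leukaemia cell lines were seeded in RPMI 1640 at a density titrated to the linear growth range. Each line went into 384-well plates with compounds acoustically pre-printed at five tenfold doses from 1 to 10,000 nM, in duplicate, and was incubated for 72 h at 37 °C with 5% CO2. Luminescent ATP viability was normalised to vehicle and to a positive control at 10 µM. The IC50 came from four-parameter log-logistic dose–response fits.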

KCL-22 [2] = tested on: KCL-22
How it was run: as §1

KG-1 [3] = tested on: KG-1
How it was run: as §1

ML-2 [4] = tested on: ML-2
How it was run: as §1

NOMO-1 [5] = tested on: NOMO-1
How it was run: as §1

HL-60 [6] = assay: cell viability (% survival relative to DMSO control); higher = less cytotoxic
How it was run: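 For each screen, HL-60 cells in RPMI 1640 with 10% FBS carried either DMSO or 100 nM of one of three metabolic inhibitors while the full library was applied at five tenfold concentrations, 1–10,000 nM, in duplicate. Plates were 384-well and were kept 72 h at 37 °C, 5% CO2. Viability, measured by CellTiter-Glo, was normalised to wells with DMSO and with 10 μM proteasome inhibitor. Where area under the curve appears, it was fitted by four-parameter log-logistic models in drc and PharmacoGx.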

BV-173 = assay: cell viability (% survival relative to DMSO control, bortezomib = 0%); higher = less cytotoxic
How it was run: (§2)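 Seeding density for each of the 10 AML and 5 CML cell lines was titrated to the linear growth range. Cells went into 384-well plates pre-printed in duplicate with compounds at 1, 10, 100, 1000 or 10000 nM and were held for 72 h at 37 °C with 5% CO2. CellTiter-Glo luminescence then provided the readout. Percent survival is expressed relative to vehicle at 100% and a 10 µM positive control at 0%, averaged over duplicates.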

HEL = assay: as above
How it was run: as §2

HL-60 [7] = assay: as above
How it was run: as §2

K-562 = assay: as above
How it was run: as §2

KCL-22 [8] = assay: as above
How it was run: as §2

KG-1 [9] = assay: as above
How it was run: as §2

KU-812 = assay: as above
How it was run: as §2

LAMA-84 = assay: as above
How it was run: as §2

ML-2 [10] = assay: as above
How it was run: as §2

MOLM-13 = assay: as above
How it was run: as §2

MV4-11 = assay: as above
How it was run: as §2

Mono-Mac-6 = assay: as above
How it was run: as §2

NOMO-1 [11] = assay: as above
How it was run: as §2

SHI-1 = assay: as above
How it was run: as §2

THP-1 = assay: as above
How it was run: as §2

C[C@]12C=CC(=O)C=C1CC[C@@H]1[C@@H]2[C@@H](O)C[C@@]2(C)[C@H]1CC[C@]2(O)C(=O)CO [Prednisolone]
Conditions | IC50 (cell viability) [µM]
HL-60 [1] | > 10
KCL-22 [2] | 0.524
KG-1 [3] | > 10
ML-2 [4] | > 10
NOMO-1 [5] | > 10

cell viability [%], HL-60 [6]
Conditions | 0.001 µM | 0.01 µM | 0.1 µM | 1 µM | 10 µM
co-treatment: AZD3965 100 nM | 82.4 | 96.7 | 103 | 103 | 96.2
co-treatment: DMSO vehicle | 95.9 | 104 | 100 | 103 | 101.5
co-treatment: GSK2194069 100 nM | 94.8 | 101 | 98.4 | 101 | 100
co-treatment: pictilisib 100 nM | 90 | 92.8 | 99.1 | 105.5 | 95.8

cell viability [%]
Conditions | 1 nM | 10 nM | 100 nM | 1000 nM | 10000 nM
BV-173 | 82.5 | 104 | 18.8 | 1.67 | 2.49
HEL | 105 | 114 | 109 | 109 | 105
HL-60 [7] | 93.2 | 93.5 | 104 | 114 | 116
K-562 | 112 | 88.7 | 104 | 99 | 92.6
KCL-22 [8] | 94.2 | 111 | 82.5 | 45.4 | 43
KG-1 [9] | 115 | 105 | 87.7 | 91.3 | 71.4
KU-812 | 87.2 | 104 | 99.8 | 124 | 112
LAMA-84 | 94.1 | 106 | 92.6 | 88.5 | 81.5
ML-2 [10] | 91.5 | 104 | 115 | 114 | 104
MOLM-13 | 94.3 | 96 | 118 | 106 | 109
MV4-11 | 95.2 | 110 | 143 | 142 | 107
Mono-Mac-6 | 93.7 | 90.3 | 151 | 157 | 140
NOMO-1 [11] | 93.3 | 103 | 109 | 88.7 | 87.3
SHI-1 | 97.7 | 95.7 | 97.9 | 67.6 | 71.9
THP-1 | 92 | 96.4 | 106 | 108 | 102

CC(C)CC(=O)N[C@H](C(=O)N[C@H](C(=O)N[C@@H](CC(C)C)[C@@H](O)CC(=O)N[C@@H](C)C(=O)N[C@@H](CC(C)C)[C@@H](O)CC(=O)O)C(C)C)C(C)C [Pepstatin A]
Conditions | IC50 (cell viability) [µM]
HL-60 [1] | > 10
KCL-22 [2] | > 10
KG-1 [3] | > 10
ML-2 [4] | > 10
NOMO-1 [5] | > 10

cell viability [%], HL-60 [6]
Conditions | 0.001 µM | 0.01 µM | 0.1 µM | 1 µM | 10 µM
co-treatment: AZD3965 100 nM | 104 | 107 | 103 | 102 | 102
co-treatment: DMSO vehicle | 98.3 | 101 | 98.4 | 98.35 | 99.6
co-treatment: GSK2194069 100 nM | 100 | 108 | 103 | 103 | 99.9
co-treatment: pictilisib 100 nM | 99.8 | 117 | 98.8 | 89.9 | 107

cell viability [%]
Conditions | 1 nM | 10 nM | 100 nM | 1000 nM | 10000 nM
BV-173 | 94.2 | 86.5 | 106 | 101 | 88.4
HEL | 98.8 | 88.3 | 95.8 | 105 | 95.3
HL-60 [7] | 99.7 | 73.7 | 111 | 144 | 84.6
K-562 | 95.1 | 85.5 | 96.9 | 101 | 87.9
KCL-22 [8] | 97.4 | 74.5 | 101 | 101 | 98.7
KG-1 [9] | 99.1 | 77.5 | 96.8 | 90.7 | 93.9
KU-812 | 102 | 101 | 96.8 | 111 | 95.9
LAMA-84 | 92.2 | 87.2 | 103 | 96.2 | 103
ML-2 [10] | 96.5 | 84.5 | 105 | 106 | 91.8
MOLM-13 | 109 | 93.8 | 109 | 126 | 86.5
MV4-11 | 87.7 | 77.9 | 90 | 92.3 | 81.8
Mono-Mac-6 | 101 | 83.7 | 104 | 100 | 101
NOMO-1 [11] | 98.3 | 86.8 | 106 | 104 | 102
SHI-1 | 93 | 87.5 | 111 | 105 | 105
THP-1 | 96.3 | 87.1 | 103 | 96.1 | 97
